Source: US5672609A, “Pyridine compounds, intermediates compositions and methods of use” (Eli Lilly and Company, priority 1996, dated 1997)
Several values for one entry are separate records, joined by “and”; a condition that tells them apart may be missing. Identical values can stand only once.

Legend:
uterus [1] = assay: Uterine weight in ovariectomized rats, 4-day oral dosing (Table 1); type: in vivo, female Sprague Dawley rats; conditions: OVX rats; for change in vivo at 0.1 mg/kg / change in vivo at 10 mg/kg / change in vivo at 25 mg/kg / change in vivo at 1 mg/kg: Rattus norvegicus, po, 96 h, daily for 4 days, read-out: Uterine Wt. (% inc. vs. OVX); for change in vivo at 0.1 mg/kg: 0.1 mg/kg oral; for change in vivo at 10 mg/kg: 10 mg/kg oral; for change in vivo at 25 mg/kg: 25 mg/kg oral; for change in vivo at 1 mg/kg: 1 mg/kg oral
Description: In the examples illustrating the methods, a post-menopausal model was used in which effects of different treatments upon circulating lipids were determined.
(§1) Seventy-five day old female Sprague Dawley rats (weight range of 200 to 225 g) were obtained from Charles River Laboratories (Portage, Mich.). The animals were either bilaterally ovariectomized (OVX) or exposed to a sham surgical procedure at Charles River Laboratories, and then shipped after one week. Upon arrival, they were housed in metal hanging cages in groups of 3 or 4 per cage and had ad libitum access to food (calcium content approximately 0.5%) and water for one week. Room temperature was maintained at 22.2° ±1.7° C. with a minimum relative humidity of 40%. The photoperiod in the room was 12 hours light and 12 hours dark.
(§2) Dosing Regimen Tissue Collection. After a one week acclimation period (therefore, two weeks post-OVX) daily dosing with test compound was initiated. 17α-ethynyl estradiol or the test compound were given orally, unless otherwise stated, as a suspension in 1% carboxymethylcellulose or dissolved in 20% cyclodextrin. Animals were dosed daily for 4 days. Following the dosing regimen, animals were weighed and anesthetized with a ketamine: Xylazine (2:1, V:V) mixture and a blood sample was collected by cardiac puncture. The animals were then sacrificed by asphyxiation with CO2, the uterus was removed through a midline incision, and a wet uterine weight was determined.
(§3) Data presented in Table 1 below show comparative results among ovariectomized rats, rats treated with 17α-ethynyl estradiol (EE2; an orally available form of estrogen), and rats treated with certain compounds of the present invention. […] This uterine response to estrogen is well recognized in the art.
(§4) The data presented in Table 1 below reflects the response of 5 to 6 rats per treatment.

[2] = tested on: Uterine Eosinophil Peroxidase (EPO); assay: Uterine Eosinophil Peroxidase (EPO) Assay (Table 1); type: in vivo, female Sprague Dawley rats; parameters: key to Uterine EPO (V. max): Vmax of absorbance increase at 450 nm, monitored over 1 min; conditions: for Uterine EPO (V. max): OVX rats, daily for 4 days
Source text: as §1, §2
Uterine Eosinomhil Peroxidase (EPO) Assay. Uteri were kept at 4° C. until time of enzymatic analysis. The uteri were then homogenized in 50 volumes of 50 mM Tris buffer (pH-8.0) containing 0.005% Triton X-100. Upon addition of 0.01% hydrogen peroxide and 10 mM O-phenylenediamine (final concentrations) in Tris buffer, increase in absorbance was monitored for one minute at 450 nm. The presence of eosinophils in the uterus is an indication of estrogenic activity of a compound. The maximal velocity of a 15 second interval was determined over the initial, linear portion of the reaction curve.
As is expressed in the below data, estrogenicity also was assessed by evaluating the response of eosinophil infiltration into the uterus.
as §4

Serum cholesterol [3] = assay: Serum cholesterol in ovariectomized rats, 4-day oral dosing (Table 1); type: in vivo, female Sprague Dawley rats; conditions: OVX rats; for inhibition in vivo at 0.1 mg/kg / inhibition in vivo at 1 mg/kg / inhibition in vivo at 25 mg/kg / ED50 / inhibition in vivo at 10 mg/kg: Rattus norvegicus, po, 96 h, daily for 4 days; for inhibition in vivo at 0.1 mg/kg: 0.1 mg/kg oral; for inhibition in vivo at 0.1 mg/kg / inhibition in vivo at 1 mg/kg / inhibition in vivo at 25 mg/kg / inhibition in vivo at 10 mg/kg: read-out: Serum Cholesterol (% dec. vs. OVX); for inhibition in vivo at 1 mg/kg: 1 mg/kg oral; for inhibition in vivo at 25 mg/kg: 25 mg/kg oral; for ED50: dose column in mg/kg, read-out: ED50 (effective dose to dec. serum chol. by 50%); for inhibition in vivo at 10 mg/kg: 10 mg/kg oral
Source text: as §1, §2
(§5) Cholesterol Analysis. Blood samples were allowed to clot at room temperature for 2 hours, and serum was obtained following centrifugation for 10 minutes at 3000 rpm. Serum cholesterol was determined using a Boehringer Mannheim Diagnostics high performance cholesterol assay. Briefly the cholesterol was oxidized to cholest-4-en-3-one and hydrogen peroxide. The hydrogen peroxide was then reacted with phenol and 4-aminophenazone in the presence of peroxidase to produce a p-quinone imine dye, which was read spectrophotometrically at 500 nm. Cholesterol concentration was then calculated against a standard curve. The entire assay was automated using a Biomek Automated Workstation.
as §3, §4

uterus [4] = assay: Osteoporosis Test: uterine weight (Table 2); type: in vivo; conditions: daily for 35 days, 6-month-old rats
Description: (§6) Following the General Preparation Procedure, infra, the rats were treated daily for 35 days (6 rats per treatment group) and sacrificed by carbon dioxide asphyxiation on the 36th day. The 35 day time period was sufficient to allow maximal reduction in bone density, measured as described herein. At the time of sacrifice, the uteri were removed, dissected free of extraneous tissue, and the fluid contents were expelled before determination of wet weight in order to confirm estrogen deficiency associated with complete ovariectomy. […] In accordance with the above procedures, the compound of Example 9 and ethynyl estradiol (EE2) in 20% hydroxypropyl β-cyclodextrin were orally administered to test animals. Distal femur metaphysis data presented in Tables 2 and 3 below are the results of compound treatments compared to intact and ovariectomized test animals. The rats in the Table 2 tests were 6 months of age rather than 75 days of age (at the beginning of the tests).

[5] = tested on: Femur (distal metaphysis); assay: Osteoporosis Test: distal femur metaphysis x-ray image / bone density (Table 2); type: in vivo, rats; conditions: for Femur (x-ray image) (% protect.): daily for 35 days, 6-month-old rats; for bone density, in words: ovariectomized rats, oral, 35 days
Description: Following the General Preparation Procedure, infra, the rats were treated daily for 35 days (6 rats per treatment group) and sacrificed by carbon dioxide asphyxiation on the 36th day. The 35 day time period was sufficient to allow maximal reduction in bone density, measured as described herein. At the time of sacrifice, the uteri were removed, dissected free of extraneous tissue, and the fluid contents were expelled before determination of wet weight in order to confirm estrogen deficiency associated with complete ovariectomy. […] The right femurs were excised and digitilized x-rays generated and analyzed by an image analysis program (NIH image) at the distal metaphysis. The proximal aspect of the tibiae from these animals were also scanned by quantitative computed tomography. In accordance with the above procedures, the compound of Example 9 and ethynyl estradiol (EE2) in 20% hydroxypropyl β-cyclodextrin were orally administered to test animals. Distal femur metaphysis data presented in Tables 2 and 3 below are the results of compound treatments compared to intact and ovariectomized test animals. The rats in the Table 2 tests were 6 months of age rather than 75 days of age (at the beginning of the tests).

Serum cholesterol [6] = assay: Osteoporosis Test: serum cholesterol (Table 2); type: in vivo; conditions: daily for 35 days, 6-month-old rats
Description: as §5
Following the General Preparation Procedure, infra, the rats were treated daily for 35 days (6 rats per treatment group) and sacrificed by carbon dioxide asphyxiation on the 36th day. The 35 day time period was sufficient to allow maximal reduction in bone density, measured as described herein. At the time of sacrifice, the uteri were removed, dissected free of extraneous tissue, and the fluid contents were expelled before determination of wet weight in order to confirm estrogen deficiency associated with complete ovariectomy.
In accordance with the above procedures, the compound of Example 9 and ethynyl estradiol (EE2) in 20% hydroxypropyl β-cyclodextrin were orally administered to test animals. Distal femur metaphysis data presented in Tables 2 and 3 below are the results of compound treatments compared to intact and ovariectomized test animals. The rats in the Table 2 tests were 6 months of age rather than 75 days of age (at the beginning of the tests).

[7] = tested on: MCF-7 breast adenocarcinoma cells; assay: MCF-7 Proliferation Assay; type: cell-based; conditions: Homo sapiens, MCF7, tritiated thymidine, 48 hours
Description: MCF-7 breast adenocarcinoma cells (ATCC HTB 22) were maintained in MEM (minimal essential medium, phenol red-free, Sigma, St. Louis, Mo.) supplemented with 10% fetal bovine serum (FBS) (V/V), L-glutamine (2 mM), sodium pyruvate (1 mM), HEPES {(N-[2-hydroxyethyl]piperazine-N'-[2-ethanesulfonic acid]10 mM}, non-essential amino acids and bovine insulin (1 ug/mL) (maintenance medium). Ten days prior to assay, MCF-7 cells were switched to maintenance medium supplemented with 10% dextran coated charcoal stripped fetal bovine serum (DCC-FBS) assay medium) in place of 10% FBS to deplete internal stores of steroids. MCF-7 cells were removed from maintenance flasks using cell dissociation medium (Ca++/Mg++free HBSS (phenol red-free) supplemented with 10 mM HEPES and 2 mM EDTA). Cells were washed twice with assay medium and adjusted to 80,000 cells/mL. Approximately 100 μL (8,000 cells) were added to flat-bottom microculture wells (Costar 3596) and incubated at 37° C. in a 5% CO2 humidified incubator for 48 hours to allow for cell adherence and equilibration after transfer. Serial dilutions of drugs or DMSO as a diluent control were prepared in assay medium and 50 μL transferred to triplicate microcultures followed by 50 μL assay medium for a final volume of 200μ. After an additional 48 hours at 37° C. in a 5% CO2 humidified incubator, microcultures were pulsed with tritiated thymidine (1 uCi/well) for 4 hours. Cultures were terminated by freezing at -70° C. for 24 hours followed by thawing and harvesting of microcultures using a Skatron Semiautomatic Cell Harvester. Samples were counted by liquid scintillation using a Wallac BetaPlace β counter. Results in Table 4 below show the IC50 for certain compounds of the present invention.

[8] = Osteoporosis Test: body weight change (Table 2); type: in vivo; conditions: daily for 35 days, 6-month-old rats
Description: as §6

## C#CC1(O)CCC2C3CCc4cc(O)ccc4C3CCC21C (stereo not drawn) [EE2, 17α-ethynyl estradiol, reference compound]
Uterus [1]; oral, EE2 at 0.1 mg/kg/day
  uterine weight, in words: uterine weight was substantially greater than the uterine weight of ovariectomized control animals
[2]; ovariectomized rats
  eosinophil infiltration into the uterus, in words: caused a substantial, expected increase in eosinophil infiltration
Serum cholesterol [3]; oral, EE2 at 0.1 mg/kg/day
  serum cholesterol, in words: caused a decrease in serum cholesterol
Uterus [4]; 0.1 mg/kg oral
  Uterine Wt. (% inc. vs. OVX): 128.3% and 226.1%
[5]; 0.1 mg/kg oral
  Femur (x-ray image) (% protect.): 41.8% and 25.5%
[5]
  bone density, in words: prevented this loss
Serum cholesterol [6]; 0.1 mg/kg oral
  Serum Chol. (% dec. vs. OVX): 73.8% and 73.6%

## COc1ccc(-c2ccc(-c3ccc(F)cc3)nc2-c2ccc(OCCN3CCCCC3)cc2)cc1 [Example 6, 2-[4-[2-(1-Piperidinyl)ethoxy]phenyl]-3-(4-methoxyphenyl)-6-(4-fluorophenyl)pyridine]
Uterus [1]
  change in vivo at 0.1 mg/kg: 9.5%
  change in vivo at 10 mg/kg: 44.2%
  change in vivo at 25 mg/kg: 69.5%
[2]; 0.1 mg/kg oral
  Uterine EPO (V. max): 6.6
[2]; 25 mg/kg oral
  Uterine EPO (V. max): 22.6
Serum cholesterol [3]
  inhibition in vivo at 0.1 mg/kg: 4%
  inhibition in vivo at 1 mg/kg: 12.3%
  inhibition in vivo at 25 mg/kg: 40.8%
Serum cholesterol [3]; oral
  ED50: 70 mg/kg
[7]
  IC50: 470 nM

## Cc1ccc(-c2ccc(O)cc2)c(-c2ccc(OCCN3CCCC3)cc2)n1 [Example 9, 2-[4-[2-(1-Pyrrolidinyl)ethoxy]phenyl]-3-(4-hydroxyphenyl)-6-methylpyridine]
Uterus [1]
  change in vivo at 10 mg/kg: 26.3%
  change in vivo at 25 mg/kg: 24.3%
Serum cholesterol [3]
  inhibition in vivo at 10 mg/kg: 49.2%
  inhibition in vivo at 25 mg/kg: 58.5%
[8]; 0.01 mg/kg oral
  Body Wt. Change (% dec. vs. OVX): -5%
[8]; 0.1 mg/kg oral
  Body Wt. Change (% dec. vs. OVX): -8.2%
[8]; 25 mg/kg oral
  Body Wt. Change (% dec. vs. OVX): 6.3%
Uterus [4]; 0.01 mg/kg oral
  Uterine Wt. (% inc. vs. OVX): -3.5%
Uterus [4]; 0.1 mg/kg oral
  Uterine Wt. (% inc. vs. OVX): -11%
Uterus [4]; 25 mg/kg oral
  Uterine Wt. (% inc. vs. OVX): -6.8%
[5]; 0.01 mg/kg oral
  Femur (x-ray image) (% protect.): -11.5%
[5]; 0.1 mg/kg oral
  Femur (x-ray image) (% protect.): -16.4%
[5]; 25 mg/kg oral
  Femur (x-ray image) (% protect.): 33.3%
[5]
  bone density, in words: elevated mean bone density in a general, dose-related manner
Serum cholesterol [6]; 0.01 mg/kg oral
  Serum Chol. (% dec. vs. OVX): 44.4%
Serum cholesterol [6]; 0.1 mg/kg oral
  Serum Chol. (% dec. vs. OVX): 33.6%
Serum cholesterol [6]; 1 mg/kg oral
  Serum Chol. (% dec. vs. OVX): 35.4% and 54.2%
Serum cholesterol [6]; 10 mg/kg oral
  Serum Chol. (% dec. vs. OVX): 35.4% and 42.2%
Serum cholesterol [6]; 25 mg/kg oral
  Serum Chol. (% dec. vs. OVX): 19.7%

## Oc1ccc(-c2ccc(-c3ccc(F)cc3)nc2-c2ccc(OCCN3CCCCC3)cc2)cc1 [Example 12, 2-[4-[2-(1-Piperidinyl)ethoxy]phenyl]-3-(4-hydroxyphenyl)-6-(4-fluorophenyl)pyridine]
Uterus [1]
  change in vivo at 0.1 mg/kg: 9.8%
  change in vivo at 1 mg/kg: 4.2%
  change in vivo at 10 mg/kg: 76.2%
  change in vivo at 25 mg/kg: 68%
[2]; 0.1 mg/kg oral
  Uterine EPO (V. max): 5.9
[2]; 25 mg/kg oral
  Uterine EPO (V. max): 67.9
Serum cholesterol [3]
  inhibition in vivo at 0.1 mg/kg: 26.2%
  inhibition in vivo at 25 mg/kg: 49.9%
[7]
  IC50: 185 nM

## Oc1ccc(-c2ccc(-c3ccc(O)cc3)c(-c3ccc(OCCN4CCCC4)cc3)n2)cc1 [Example 14, 2-[4-[2-(1-Pyrrolidinyl)ethoxy]phenyl]-3,6-bis(4-hydroxyphenyl)pyridine]
Uterus [1]
  change in vivo at 0.1 mg/kg: 6.3%
  change in vivo at 1 mg/kg: -3.3%
  change in vivo at 10 mg/kg: 8.8%
[2]; 0.1 mg/kg oral
  Uterine EPO (V. max): 2.4
[2]; 1 mg/kg oral
  Uterine EPO (V. max): 4.5
[2]; 10 mg/kg oral
  Uterine EPO (V. max): 4.2
Serum cholesterol [3]
  inhibition in vivo at 0.1 mg/kg: 11.9%
  inhibition in vivo at 1 mg/kg: -16.5%
  inhibition in vivo at 10 mg/kg: -7.3%
Serum cholesterol [3]; oral
  ED50: > 10 mg/kg
[7]
  IC50: 9 nM
